Test results published in publication PMC7155171, “Probing the Open Global Health Chemical Diversity Library for Multistage-Active Starting Points for Next-Generation Antimalarials” (ACS Infectious Diseases, 2020).
Read-outs that look alike come from different tables or passages of the source.

Assays:
Type in all cases: cell-based, Plasmodium falciparum
[1] = tested on: P. falciparum Dd2 (PfLuc) line expressing firefly luciferase, asexual blood stage; assay: microbe, parasite or virus in culture; settings: Plasmodium falciparum
P. falciparum Dd2 = assay: SYBR green I asexual blood stage proliferation assay (96 h); settings: Plasmodium falciparum, DD2, 11-pt dose response, 96hr
[2] = tested on: P. falciparum (NF54) stage V gametocytes; assay: Stage V gametocyte viability assay (MitoTracker Red CMXRos high content imaging); settings: for inhibition at 2 µM: read-out: Stg V Gam primary screen: Inhibition % (2uM) (n=2)
[3] = DD2, read-out: CDD P. falciparum Luciferase ABS 11-pt Reconfirmation Dose Response (48hr): IC50 (μM), 11-pt dose response, 48hr
[4] = DD2, 8-pt dose response, 96hr, read-out: CDD P. falciparum Luciferase ABS 8-pt Reconfirmation Dose Response (96hr): IC50
[5] = DD2, 8-pt dose response, 96hr, read-out: CDD P. falciparum Luciferase ABS 8-pt Reconfirmation Dose Response (96hr): Maximum inhibition (%)
[6] = DD2, 11-pt dose response, 96hr, read-out: CDD P. falciparum Luciferase ABS 11-pt Reconfirmation Dose Response (96hr): IC50
[7] = DD2, 11-pt dose response, 96hr, read-out: CDD P. falciparum Luciferase ABS 11-pt Reconfirmation Dose Response (96hr): Maximum inhibition (%)
[8] = Sybr Green I, read-out: CDD P. falciparum Sybr Green I ABS 11-pt Reconfirmation Dose Response (96hr): IC50
[9] = Sybr Green I, read-out: CDD P. falciparum Sybr Green I ABS 11-pt Reconfirmation Dose Response (96hr): Maximum inhibition (%)
[10] = Plasmodium falciparum, NF54, 72 h, read-out: Stg V Gam dose response IC50 (µM) (n=3), 10-point dose response, n=3, 72 h
[11] = DD2, 11-pt dose response, 48hr, read-out: CDD P. falciparum Luciferase ABS 11-pt Reconfirmation Dose Response (48hr): Maximum inhibition (%)
[12] = Plasmodium falciparum, NF54, 72 h
[13] = Plasmodium falciparum, NF54, read-out: Stg V Gam dose response IC50 (µM) (n=3), 10-point dose response, n=3, 72 h
[14] = Plasmodium falciparum, NF54, Table S6, 2uM, n=2, 72 h
[15] = DD2, read-out: P. falciparum Luciferase ABS 11-pt Reconfirmation Dose Response (48hr): IC50, 11-pt dose response, 48hr
[16] = DD2, 8-pt dose response, 96hr, read-out: P. falciparum Luciferase ABS 8-pt Reconfirmation Dose Response (96hr): IC50
[17] = DD2, 8-pt dose response, 96hr, read-out: P. falciparum Luciferase ABS 8-pt Reconfirmation Dose Response (96hr): Maximum inhibition (%)
[18] = DD2, 11-pt dose response, 48hr, read-out: P. falciparum Luciferase ABS 11-pt Reconfirmation Dose Response (48hr): Maximum inhibition (%)
[19] = DD2, 11-pt dose response, 96hr, read-out: P. falciparum Luciferase ABS 11-pt Reconfirmation Dose Response (96hr): IC50
[20] = DD2, 11-pt dose response, 96hr, read-out: P. falciparum Luciferase ABS 11-pt Reconfirmation Dose Response (96hr): Maximum inhibition (%)
[21] = read-out: P. falciparum Sybr Green I ABS 11-pt Reconfirmation Dose Response (96hr): IC50
[22] = read-out: P. falciparum Sybr Green I ABS 11-pt Reconfirmation Dose Response (96hr): Maximum inhibition (%)
[23] = Plasmodium falciparum, NF54, 72 h, read-out: GAM V IC50, stage V gametocytes, 72 h

Row | Structure (SMILES) | IC50 [1, 3] [µM] | IC50 [1, 4] [µM] | Emax [1, 5] [%] | IC50 [1, 6] [µM] | Emax [1, 7] [%] | IC50 (P. falciparum Dd2; [8]) [nM] | Emax (P. falciparum Dd2; [9]) [%] | IC50 [2, 10] [µM] | Emax [1, 11] [%] | inhibition at 2 µM [2, 12] [%] | IC50 [2, 23] [µM] | also measured
1 | NC(=O)c1cccc2nc([C@H]3CCN(Cc4ccccn4)C3)[nH]c12 [DDD01025389, NC(=O)C1=C2NC(=NC2=CC=C1)[C@H]1CCN(CC2=CC=CC=N2)C1] | 0.058 | 0.0339 | 98.4 | 0.0101 | 101 | 80.7 | 86.6 | 0.125 | – | – | – | –
2 | COc1ccc(NC(=O)Cn2nc(C)c(C(C)=O)c2C)cc1 [DDD01027600, COC1=CC=C(NC(=O)CN2N=C(C)C(C(C)=O)=C2C)C=C1] | 1.9 | 0.49 | 92.8 | 1.45 | 92.8 | 4580 | – | 3.74 | 87 | 53.5 | – | –
3 | COc1ccc(-c2c(C)nn3c(=N)c(C#N)n[nH]c23)cc1OC [DDD01035187, COC1=CC=C(C=C1OC)C1=C2N=NC(C#N)=C(N)N2N=C1C] | 1.18 | 0.57 | 93 | 0.841 | 98.5 | 5980 | 90.8 | 8.2 | 95.8 | 61.6 | – | –
4 | Cc1nn(C)cc1C1=NS(=O)(=O)N(C)C(C(=O)Nc2ccc(Br)cc2)=C1 [DDD01058697, CN1C=C(C(C)=N1)C1=NS(=O)(=O)N(C)C(=C1)C(=O)NC1=CC=C(Br)C=C1] | 0.55 | 0.2 | 95.2 | 0.281 | 101 | 321 | 99.9 | – | 99.4 | – | – | IC50 [2, 13]: 2.78 µM; inhibition at 2 µM [2, 14]: 53.2%
5 | COc1ccc(C)cc1CN1CCC(c2cc3ncccc3cn2)CC1 [DDD01058767, COC1=CC=C(C)C=C1CN1CCC(CC1)C1=NC=C2C=CC=NC2=C1] | 0.0507 | 0.25 | 96.3 | 0.0439 | 100 | 136 | 101 | 2.51 | 98.5 | 85.5 | – | –
6 | CC(C)(C)c1cn2c(n1)C(CNCc1ccccn1)CCC2 (stereo not drawn) [DDD01062588, CC(C)(C)C1=CN2CCCC(CNCC3=CC=CC=N3)C2=N1] | – | – | – | – | – | – | – | 0.069 | – | 86.8 | 0.07 | IC50 [1, 15]: 2.9 µM; IC50 [1, 16]: 1.44 µM; Emax [1, 17]: 91.5%; Emax [1, 18]: 90.4%; IC50 [1, 19]: 1.41 µM; Emax [1, 20]: 98.6%; IC50 (P. falciparum Dd2; [21]): 1720 nM; Emax (P. falciparum Dd2; [22]): 87.3%
7 | Fc1cccc(C(NCc2ncc[nH]2)c2ccccn2)c1 (stereo not drawn) [DDD01064153, FC1=CC=CC(=C1)C(NCC1=NC=CN1)C1=CC=CC=N1] | 5.61 | 0.45 | – | 0.644 | 97.4 | 5580 | 82.6 | 1.55 | 86.1 | 63.2 | 1.55 | –
8 | Clc1cccc(C(NCc2ncc[nH]2)c2ccccn2)c1 (stereo not drawn) [DDD01064155, ClC1=CC=CC(=C1)C(NCC1=NC=CN1)C1=CC=CC=N1] | 1.99 | 0.27 | 94.2 | 0.408 | 98.7 | 3750 | 88.1 | 2.06 | 94.1 | 59.1 | 2.06 | –
9 | CNc1cc(C)nc(NC2CCCN(C3Cc4ccccc4C3)C2)n1 (stereo not drawn) [DDD01243506, CNC1=CC(C)=NC(NC2CCCN(C2)C2CC3=CC=CC=C3C2)=N1] | – | – | – | – | – | – | – | 2.91 | – | 62.9 | – | IC50 [1, 15]: 1.16 µM; IC50 [1, 16]: 1.33 µM; Emax [1, 18]: 94.3%; IC50 [1, 19]: 0.707 µM; Emax [1, 20]: 100%; IC50 (P. falciparum Dd2; [21]): 957 nM; Emax (P. falciparum Dd2; [22]): 96.1%
10 | CN(Cc1ccsc1)c1nc(-c2ccccn2)nc2c1CCNCC2 [DDD01243664, CN(CC1=CSC=C1)C1=NC(=NC2=C1CCNCC2)C1=CC=CC=N1] | 0.752 | 0.52 | 95.1 | 0.299 | 98.7 | 872 | 78.7 | 0.732 | 89.8 | 95.1 | 0.73 | IC50 ([1]; DD2, asexual blood stage, assay format not given, read-out: ABS IC50): < 1 µM; IC50 ([2]; read-out: GAM V IC50, stage V gametocytes, 72 h): < 1 µM
11 | CN(CCO)Cc1cc(Cl)ccc1OCC(O)CN1CCCCCC1 (stereo not drawn) [DDD01243745, CN(CCO)CC1=CC(Cl)=CC=C1OCC(O)CN1CCCCCC1] | 2.92 | 0.95 | 93.5 | 1.45 | 98.8 | 1090 | 99.1 | 5.69 | 97 | 54.7 | – | –
12 | OC1(CN2CCC(Oc3cccc(C(F)(F)F)c3)CC2)CCNC1 (stereo not drawn) [DDD01245291, OC1(CN2CCC(CC2)OC2=CC=CC(=C2)C(F)(F)F)CCNC1] | 2.08 | 0.88 | 93.8 | 0.958 | 99.5 | 1930 | 96.4 | 2.42 | 95.9 | 50.1 | – | –
13 | CCc1ccc2nc(NCCCN(CCO)CCO)cc(C)c2c1 [DDD01247914, CCC1=CC=C2N=C(NCCCN(CCO)CCO)C=C(C)C2=C1] | 3.94 | 1.07 | 91.1 | 1.68 | 99.8 | 3610 | 94 | 3.72 | 92.3 | 59.7 | – | –
14 | CCc1[nH]c2c(CNc3cc(C)nc(NC)n3)cc(C)cc2c1C [DDD01250162, CCC1=C(C)C2=CC(C)=CC(CNC3=CC(C)=NC(NC)=N3)=C2N1] | – | – | – | – | – | – | – | 4.9 | – | 64.1 | 4.9 | IC50 [1, 15]: > 12.5 µM; IC50 [1, 16]: 1.31 µM; Emax [1, 17]: 92.3%; Emax [1, 18]: 38.8%; IC50 [1, 19]: > 12.5 µM; Emax [1, 20]: 45.4%; IC50 (P. falciparum Dd2; [21]): 1550 nM; Emax (P. falciparum Dd2; [22]): 94.1%
15 | CCc1[nH]c2c(CNc3nc(C)cc(NC)n3)cc(C)cc2c1C [DDD01251782, CCC1=C(C)C2=CC(C)=CC(CNC3=NC(C)=CC(NC)=N3)=C2N1] | 0.765 | 0.63 | 95.7 | 0.158 | 98.4 | 696 | 98 | – | – | – | – | IC50 [2, 13]: 3.76 µM; inhibition at 2 µM [2, 14]: 53.8%; IC50 ([2]; Plasmodium falciparum, NF54, stage V gametocytes, 72 h, read-out: GAM V IC50): 3.76 µM
16 | NCC1CCN(C2CCN(c3ccc(-c4ccco4)cc3)CC2)C1 (stereo not drawn) [DDD01252361, NCC1CCN(C1)C1CCN(CC1)C1=CC=C(C=C1)C1=CC=CO1] | 3 | 0.4 | 95.9 | 1.8 | 100 | 605 | 95.1 | 1.9 | 98.8 | 80.5 | – | –
17 | CCc1ccc(C2c3nc[nH]c3CCN2Cc2nccn2CC)nc1 (stereo not drawn) [DDD01254473, CCN1C=CN=C1CN1CCC2=C(NC=N2)C1C1=CC=C(CC)C=N1] | – | – | – | – | – | – | – | 0.056 | – | 80.6 | – | IC50 [1, 15]: 1.54 µM; IC50 [1, 16]: 1.2 µM; Emax [1, 17]: 91.2%; IC50 [1, 19]: 0.448 µM; Emax [1, 20]: 98.8%; IC50 (P. falciparum Dd2; [21]): 2640 nM; Emax (P. falciparum Dd2; [22]): 78.6%
18 | CN(Cc1nccs1)c1nc(-c2ccccn2)nc2c1CCNCC2 [DDD01258014, CN(CC1=NC=CS1)C1=NC(=NC2=C1CCNCC2)C1=CC=CC=N1] | 2.11 | 1.09 | 89.8 | 0.455 | 98 | 8500 | 68.8 | 1.18 | 76.9 | 75.5 | 1.18 | IC50 ([1]; 96 h incubation, Dd2 luciferase, read-out: 96 hour Pfluc IC50): 0.46 µM
